Measurements from US5280111A, “Sulfated tocopheryl oligosaccharides and antiviral agents including the same as active ingredients” (Dainippon Ink and Chemicals, Inc., priority 1991, dated 1994).
Values after ≈ are worked out from the molar mass of the structure shown. Like-named read-outs stand apart in the source and are kept apart here.

What was measured:
Type in all cases: cell-based
MT-4 cells = assay: Cytotoxicity: inhibitory effect on host cell viability, mock-infected MT-4 cells (MTT method); settings: human, mt-4 cells, 120 h
Method: (§1) Activity of the compound against HIV-1 replication was based on the inhibition of virus induced cytopathogenicity in MT-4 cells. MT-4 cells were suspended in culture medium at 2.5×10^4 cells/ml and infected with HIV-1 at a multiplicity of infection (MOI) of 0.01. 100 μl of cell suspension was brought into microtiter tray wells containing various concentrations of the test compounds.
(§2) After 5 days of incubation at 37° C. using a CO2 incubator, the number of viable cells was determined by the MTT method.
(§3) The inhibitory effect on host cell viability (cytotoxicity) was also determined by the MTT method. All activities of the compounds are expressed as 50% inhibitory concentration, i.e., the concentration required to reduce the number of HIV-1-infected MT-4 cells or mock-infected MT-4 cells by 50%. These are expressed using EC50 and CC50. SI is expressed by the ratio of CC50 /EC50. (Reference document: Pauwels, et al., J. Virol Methods, 20 (1988) 309~321).
(§4) According to this method, the anti-HIV assay was carried out using the compounds obtained in Examples 9 to 14. In addition, AZT (3'-azido-3'-deoxythymidine) known as an anti-AIDS agent was employed as a comparative example.

HIV-1 = assay: Anti-HIV assay: inhibition of virus induced cytopathogenicity in MT-4 cells (MTT method); settings: for EC50: HIV-1-infected MT-4 cells, MOI 0.01, 5 days at 37° C., MTT method; for SI: ratio of CC50/EC50, 7200 min
Method: as §1, §2, §3, §4

[1] = Cytotoxicity: inhibitory effect on host cell viability, mock-infected MT-4 cells (MTT method); settings: human; mock-infected MT-4 cells; 50% reduction of viable cells; MTT method; 5 days at 37° C.
Method: as §1, §2, §3, §4

## sulfated ester sodium salt of dl-α-tocopheryl β-D-glucosyl(1→3)-{β-D-glucosyl(1→3)}3 -β-D-glucoside (1) [Example 10]
MT-4 cells
  CC50: > 480 µg/mL
HIV-1
  EC50: 0.52 µg/mL
  SI: > 920

## Cc1c(C)c2c(c(C)c1O[C@@H]1O[C@H](COS(=O)(=O)O)[C@@H](O[C@@H]3O[C@H](COS(=O)(=O)O)[C@H](O[C@@H]4O[C@H](COS(=O)(=O)O)[C@H](O[C@@H]5O[C@H](COS(=O)(=O)O)[C@H](OS(=O)(=O)O)[C@H](OS(=O)(=O)O)[C@H]5OS(=O)(=O)O)[C@H](OS(=O)(=O)O)[C@H]4OS(=O)(=O)O)[C@H](OS(=O)(=O)O)[C@H]3OS(=O)(=O)O)[C@H](OS(=O)(=O)O)[C@H]1OS(=O)(=O)O)CCC(C)(CCCC(C)CCCC(C)CCCC(C)C)O2 (mixture of isomers) [Example 13, sulfated dl-α-tocopheryl β-D-galactosyl(1→4)-β-D-galactosyl(1→4)-β-D-lactoside]
MT-4 cells
  CC50: 621 µg/mL

## sulfated ester sodium salt of dl-α-tocopheryl β-D-glucosyl(1→3)-{β-D-glucosyl(1→3)}7 -β-D-glucoside [Example 12]
MT-4 cells
  CC50: > 480 µg/mL
HIV-1
  EC50: 0.44 µg/mL
  SI: > 1000

## sulfated ester sodium salt of dl-α-tocopheryl β-D-glucosyl(1→3)-{β-D-glucosyl(1→3)}3 -β-D-glucoside (2) [Example 11]
MT-4 cells
  CC50: > 480 µg/mL
HIV-1
  EC50: 0.45 µg/mL
  SI: > 1000

## Cc1cn([C@H]2C[C@H](N=[N+]=[N-])[C@@H](CO)O2)c(=O)[nH]c1=O [AZT, 3'-azido-3'-deoxythymidine, reference compound]
[1]
  CC50 at 120 h: 2.88 µg/mL (≈ 10.8 µM)
HIV-1; Human immunodeficiency virus 1, MT4, 120 h, read-out: EC50
  EC50: 0.0013 µg/mL (≈ 0.00486 µM)
HIV-1
  SI: 2160

## sulfated dl-α-tocopheryl β-D-galactosyl(1→4)-β-D-galactosyl(1→4)-β-D-lactoside [Example 14]
MT-4 cells
  CC50: 656 µg/mL
HIV-1
  EC50: 0.57 µg/mL
  SI: 1151

## sulfated dl-α-tocopheryl β-D-galactosyl(1→4)-β-D-lactoside [Example 9]
MT-4 cells
  CC50: 606 µg/mL
HIV-1
  EC50: 1.03 µg/mL
  SI: 587
